Earlier results as cited in patent publication US9586989B1, “Non-toxic skin cancer therapy with copper peptides” (Skin Biology, Inc., priority 2011, dated 2017).

Columns and labels:
[1] = tested on: 54 human genes overexpressed in patients with aggressive metastatic form of colon cancer; settings: for concentration that produced downregulation of "metastatic" genes: Connectivity Map perturbagen search
Ehrlich ascites cells = settings: injection for 12 days; mixture of 8 micrograms ascorbic acid and 8 micrograms copper 2+ complex

| Compound | concentration that produced downregulation of "metastatic" genes [1] | share of genes in which RNA production was suppressed ([1]; of 54 human genes overexpressed in aggressive metastatic colon cancer, GHK without copper 2+) | share of mice that lived for a long time and resisted re-establishment of tumor cells (Ehrlich ascites cells) | share of mice with prolonged life span (Ehrlich ascites cells) |
| --- | --- | --- | --- | --- |
| Gly-L-His-L-Lys [GHK] | 1 µM | 70% |  |  |
| O=C1C=C2C=C[C@@H]3C[C@@]2(O1)[C@H]1CCCCN31 [securinine] | 18 µM |  |  |  |
| copper 2+ complexed to Glycyl-Glycyl-L-Histidine |  |  | 40% | 60% |
